Results on 29 compounds are retold here after patent US10703756B2, “Pyrrolo[2,3-D]pyrimidinyl, pyrrolo[2,3-B]pyrazinyl, pyrrolo[2,3-B]pyridinyl acrylamides and epoxides thereof” (Pfizer Inc., priority 2015, dated 2020).

The test deals with T1, JAK3 enzyme (Homo sapiens, UniProt P52333).
T1 sequence (P52333 1-1124): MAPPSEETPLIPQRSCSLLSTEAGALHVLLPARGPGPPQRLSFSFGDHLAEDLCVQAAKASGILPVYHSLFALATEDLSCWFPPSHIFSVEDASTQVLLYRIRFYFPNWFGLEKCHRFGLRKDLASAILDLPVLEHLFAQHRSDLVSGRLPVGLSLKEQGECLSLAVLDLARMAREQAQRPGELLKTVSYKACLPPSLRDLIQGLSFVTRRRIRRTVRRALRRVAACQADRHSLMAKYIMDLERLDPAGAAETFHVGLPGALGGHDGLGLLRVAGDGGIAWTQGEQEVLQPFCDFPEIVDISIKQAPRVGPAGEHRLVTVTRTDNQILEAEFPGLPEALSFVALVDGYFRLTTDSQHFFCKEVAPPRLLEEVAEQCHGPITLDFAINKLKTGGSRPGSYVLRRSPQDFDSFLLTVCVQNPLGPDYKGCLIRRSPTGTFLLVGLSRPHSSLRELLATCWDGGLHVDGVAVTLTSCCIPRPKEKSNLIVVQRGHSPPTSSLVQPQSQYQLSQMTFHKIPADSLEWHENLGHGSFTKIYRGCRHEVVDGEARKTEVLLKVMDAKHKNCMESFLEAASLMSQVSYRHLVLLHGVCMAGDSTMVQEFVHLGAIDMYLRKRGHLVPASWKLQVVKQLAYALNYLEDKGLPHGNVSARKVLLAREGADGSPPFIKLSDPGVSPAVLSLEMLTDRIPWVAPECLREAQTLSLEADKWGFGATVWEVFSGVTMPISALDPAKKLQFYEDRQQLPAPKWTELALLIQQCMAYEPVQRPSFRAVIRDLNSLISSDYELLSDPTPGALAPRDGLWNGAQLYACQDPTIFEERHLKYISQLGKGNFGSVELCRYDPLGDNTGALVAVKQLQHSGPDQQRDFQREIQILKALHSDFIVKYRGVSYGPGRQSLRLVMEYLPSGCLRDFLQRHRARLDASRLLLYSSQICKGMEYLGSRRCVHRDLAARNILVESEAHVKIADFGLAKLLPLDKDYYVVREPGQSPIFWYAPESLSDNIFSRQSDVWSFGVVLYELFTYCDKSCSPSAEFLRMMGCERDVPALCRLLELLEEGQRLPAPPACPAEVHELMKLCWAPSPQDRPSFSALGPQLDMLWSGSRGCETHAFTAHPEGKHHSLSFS
The experiment in a line: JAK Caliper Enzyme Assay at 4 μM ATP. In kind it is biochemical. The essentials: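 Peptide phosphorylation by the kinase, adjusted to 20%-30% conversion, is measured by microfluidic separation of substrate and product on a Caliper LC3000. Compounds run as 11-point half-log series from a 600 μM DMSO top concentration.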
Take `C=CC(=O)N1CC[C@@H](Nc2cnc3[nH]cc(C(=O)NCC)c3n2)[C@H](C)C1` (single isomer, unassigned) [Example 44]: the concentration for half-maximal inhibition (IC50) stood at 0.35 nM.
With `C=CC(=O)N1CCC(Oc2cnc3[nH]cc(C(=O)N[C@H]4CC[C@@H](F)C4)c3n2)CC1` [Example 225, 2-[(1-acryloylpiperidin-4-yl)oxy]-N-[(1S,3R)-3-fluorocyclopentyl]-5H-pyrrolo[2,3-b]pyrazine-7-carboxamide] the figure was 0.233 nM; with `C=CC(=O)N1CCN(c2cnc3[nH]cc(C(=O)N[C@@H](C)COC)c3n2)CC1` [Example 295, 2-(4-acryloylpiperazin-1-yl)-N-[(2S)-1-methoxypropan-2-yl]-5H-pyrrolo[2,3-b]pyrazine-7-carboxamide], 0.179 nM.
Turning to `C=CC(=O)N1CCN(c2cnc3[nH]cc(C(=O)N[C@H]4CCO[C@H]4C)c3n2)CC1(C)C` [Example 166, 3-({[2-(4-acryloyl-3,3-dimethylpiperazin-1-yl)-5H-pyrrolo[2,3-b]pyrazin-7-yl]carbonyl}amino)-2,5-anhydro-1,3,4-trideoxy-L-threo-pentitol], the IC50 was 0.667 nM.
As for `C=CC(=O)N1CC(CF)CC(Nc2ncnc3[nH]ccc23)C1` (mixture of isomers) [Example 102, Cis-racemic-1-[3-(fluoromethyl-5-(7H-pyrrolo[2,3-d]pyrimidin-4-ylamino)piperidin-1-yl]prop-2-en-1-one], inhibition was half-maximal at 1.9 nM (IC50).
`C=CC(=O)N1CC[C@H](Nc2cnc3[nH]cc(C(=O)NCC)c3n2)C[C@H]1C` (single isomer, unassigned) [Example 41] showed a half-inhibitory concentration (IC50) of 0.159 nM.
Under `C=CC(=O)N1CCC(C)(Nc2cnc3[nH]cc(C(=O)NC4CCC4)c3n2)CC1` [Example 324, 2-[(1-acryloyl-4-methylpiperidin-4-yl)amino]-N-cyclobutyl-5H-pyrrolo[2,3-b]pyrazine-7-carboxamide] stands 0.418 nM; under `C=CC(=O)N1CCN(c2cnc3[nH]cc(C(=O)N[C@H](C)COC)c3n2)CC1` [Example 332], 0.262 nM; under `C=CC(=O)N1CCC(Oc2cnc3[nH]cc(C(=O)N[C@H](C)COC)c3n2)CC1` [Example 214, 2-[(1-acryloylpiperidin-4-yl)oxy]-N-[(2R)-1-methoxypropan-2-yl]-5H-pyrrolo[2,3-b]pyrazine-7-carboxamide], 0.209 nM.
Under `C=CC(=O)N1CCC(Nc2cnc3[nH]cc(C(=O)NCc4ccc(F)cc4)c3n2)CC1` [Example 188, 2-[(1-acryloylpiperidin-4-yl)amino]-N-(4-fluorobenzyl)-5H-pyrrolo[2,3-b]pyrazine-7-carboxamide] stands 0.515 nM.
Under `C=CC(=O)N1CC[C@@H](Oc2cnc3[nH]cc(C(=O)NCC)c3n2)C[C@@H]1C` (racemic) [Example 77, Trans-racemic-2-{[1-acryloyl-2-methylpiperidin-4-yl]oxy}-N-ethyl-5H-pyrrolo[2,3-b]pyrazine-7-carboxamide] stands 0.702 nM; under `C=CC(=O)N1CC[C@H](Nc2cnc3[nH]cc(C(=O)NCC)c3n2)[C@H](OC)C1` [Example 326, 2-{[(3R,4S)-1-acryloyl-3-methoxypiperidin-4-yl]amino}-N-ethyl-5H-pyrrolo[2,3-b]pyrazine-7-carboxamide], 0.455 nM; under `C=CC(=O)N1CCC(Nc2cnc3[nH]cc(C(=O)NCC4CC4)c3n2)CC1` [Example 172, 2-[(1-acryloylpiperidin-4-yl)amino]-N-(cyclopropylmethyl)-5H-pyrrolo[2,3-b]pyrazine-7-carboxamide], 0.448 nM.
Take `C=CC(=O)N1CC[C@H](Nc2cnc3[nH]cc(C(=O)NCC4CCCC4)c3n2)[C@H](OC)C1` [Example 284, 2-{[(3R,4S)-1-acryloyl-3-methoxypiperidin-4-yl]amino}-N-(cyclopentylmethyl)-5H-pyrrolo[2,3-b]pyrazine-7-carboxamide]: the IC50 was 0.301 nM.
The compound `C=CC(=O)N1CCC(Nc2cnc3[nH]cc(C(=O)NCc4ccccc4)c3n2)CC1` [Example 187, 2-[(1-acryloylpiperidin-4-yl)amino]-N-benzyl-5H-pyrrolo[2,3-b]pyrazine-7-carboxamide] displayed an IC50 of 0.503 nM.
With `C=CC(=O)N1CC[C@@H](Nc2cnc3[nH]cc(C(=O)NCC)c3n2)[C@@H](C)C1` (single isomer, unassigned) [Example 38] the figure was 0.328 nM.
With `C=CC(=O)N1C[C@H](CN2CC[C@H](C#N)C2)C[C@H](Nc2ncnc3[nH]ccc23)C1` [Example 108, (S)-1-(((3S,5S)-5-((7H-pyrrolo[2,3-d]pyrimidin-4-yl)amino)-1-acryloylpiperidin-3-yl)methyl)pyrrolidine-3-carbonitrile] the figure was 0.769 nM.
With `C=CC(=O)N1CC[C@H](Nc2cnc3[nH]cc(C(=O)NCC(F)(F)F)c3n2)[C@H](OC)C1` [Example 293, 2-{[(3R,4S)-1-acryloyl-3-methoxypiperidin-4-yl]amino}-N-(2,2,2-trifluoroethyl)-5H-pyrrolo[2,3-b]pyrazine-7-carboxamide] the figure was 0.68 nM; with `C=CC(=O)N1CC[C@@H](Nc2cnc3[nH]cc(C(=O)NCC(C)(F)F)c3n2)[C@@H](OC)C1` [Example 321, 2-{[(3S,4R)-1-acryloyl-3-methoxypiperidin-4-yl]amino}-N-(2,2-difluoropropyl)-5H-pyrrolo[2,3-b]pyrazine-7-carboxamide], 0.448 nM.
`C=CC(=O)N1CCC(Oc2cnc3[nH]cc(C(=O)NC(C)(C)CC)c3n2)CC1` [Example 209, 2-[(1-acryloylpiperidin-4-yl)oxy]-N-(2-methylbutan-2-yl)-5H-pyrrolo[2,3-b]pyrazine-7-carboxamide]: the midpoint of inhibition, the IC50, lay at 0.609 nM.
Under `C=CC(=O)N1C[C@@H](CC#N)C[C@@H](Nc2ncnc3[nH]ccc23)C1` (racemic) [Example 105, Cis-racemic-[1-acryloyl-5-(7H-pyrrolo[2,3-d]pyrimidin-4-ylamino)piperidin-3-yl]acetonitrile] stands 0.408 nM; under `C=CC(=O)N1CCN(c2cnc3[nH]cc(C(=O)NCC(C)C)c3n2)C[C@@H]1CC(C)C` [Example 288, 2-[(3S)-4-acryloyl-3-(2-methylpropyl)piperazin-1-yl]-N-(2-methylpropyl)-5H-pyrrolo[2,3-b]pyrazine-7-carboxamide], 0.376 nM.
With `C=CC(=O)N1CCC(Nc2cnc3[nH]cc(C(=O)NCc4cccc(F)c4)c3n2)CC1` [Example 176, 2-[(1-acryloylpiperidin-4-yl)amino]-N-(3-fluorobenzyl)-5H-pyrrolo[2,3-b]pyrazine-7-carboxamide] the figure was 0.437 nM; with `C=CC(=O)N1CC[C@@H](Oc2cnc3[nH]cc(C(=O)N[C@@H](C)COC)c3n2)C[C@@H]1C` (racemic) [Example 71, Trans-racemic-2-{[1-acryloyl-2-methylpiperidin-4-yl]oxy}-N-[(2S)-1-methoxypropan-2-yl]-5H-pyrrolo[2,3-b]pyrazine-7-carboxamide], 1.13 nM; with `C=CC(=O)N1CC[C@H](Nc2cnc3[nH]cc(C(=O)NCC(C)CC(F)(F)F)c3n2)[C@H](OC)C1` (mixture of isomers) [Example 328, Racemic-2-{[(3R,4S)-1-acryloyl-3-methoxypiperidin-4-yl]amino}-N-(4,4,4-trifluoro-2-methylbutyl)-5H-pyrrolo[2,3-b]pyrazine-7-carboxamide], 0.578 nM.
With `C=CC(=O)N1CCN(c2cnc3[nH]cc(C(=O)N[C@H](CC)CC#N)c3n2)C[C@@H]1CC(C)C` [Example 314, 2-[(3S)-4-acryloyl-3-(2-methylpropyl)piperazin-1-yl]-N-[(2R)-1-cyanobutan-2-yl]-5H-pyrrolo[2,3-b]pyrazine-7-carboxamide] the figure was 0.24 nM.
The compound `C=CC(=O)N1CCC[C@H](Nc2cnc3[nH]cc(C(=O)NCC)c3n2)C1` (single isomer, unassigned) [Example 36] returned an IC50 of 0.875 nM.
Under `C=CC(=O)N1CC[C@H](Nc2cnc3[nH]cc(C(=O)NCCCC(F)(F)F)c3n2)[C@H](OC)C1` [Example 319, 2-{[(3R,4S)-1-acryloyl-3-methoxypiperidin-4-yl]amino}-N-(4,4,4-trifluorobutyl)-5H-pyrrolo[2,3-b]pyrazine-7-carboxamide] stands 0.404 nM; under `C=CC(=O)N1CCC(Nc2cnc3[nH]cc(C(=O)NCc4ccccc4F)c3n2)CC1` [Example 196, 2-[(1-acryloylpiperidin-4-yl)amino]-N-(2-fluorobenzyl)-5H-pyrrolo[2,3-b]pyrazine-7-carboxamide], 0.479 nM.

One may read the IC50 as the concentration needed to halve the response being measured. Read a high IC50 as weaker potency.
